Measured values from US7169932B2 (priority 2001, dated 2007).
Values joined by “and” are separate entries in the source; they are usually repeats but may differ in a detail not shown here. Equal values may be shown once.

Legend:
HIV-1 = experiment: Cytopathic Effect (CPE) Inhibition Assay (XTT dye reduction); assay type: cell-based; details: Human immunodeficiency virus 1, 144 h, read-out: Ave CPE EC50 (mM), protection of infected cells, six days, XTT
Procedure, shortened: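 CEM-SS or MT-2 cells infected with HIV-1 RF or NL4–3 (moi 0.025–0.819), 2×10^4 cells/well, incubated six days with half-log compound dilutions. Viability read by XTT formazan at 450 nm; EC50 is the concentration restoring 50% of uninfected-control formazan, CC50 from uninfected treated cells, therapeutic index CC50/EC50.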

HIV-1 protease (Q7S) = target: T1, HIV-1 protease (Q7S) (Human immunodeficiency virus type 1 group M subtype B, UniProt P04585, Q495S); experiment: HIV-1 Protease RET Assay; assay type: biochemical; details: Ave. Ki (nM), RET assay, Q7S enzyme, pH 4.8, 37 C
T1 construct: made in house
Procedure, shortened: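 Ki values came from a RET assay on refolded Q7S protease (2 nM active dimer) cleaving RE(EDANS)SQNYPIVQK(DABCYL)R at 5 μM, read at ex 340/em 490 nm. Reactions ran 12 min at 37 C in 0.1M sodium acetate pH 4.8, 1M NaCl, 5 mM DTT, 10% DMSO; curves were fit with the Morrison tight-binding equation.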

[1] = test system: HIV-1 NL4–3 or HIV-1 NL4–3(184V/L90M); experiment: Susceptibility assay, p24 ELISA in infected MT-2 cells; assay type: cell-based; details: Human immunodeficiency virus 1, MT2, 72 h, read-out: EC50 or IC50 (mM)
Method: T-cell lines, CEM-SS, and MT-2, and viruses HIV-1 RF and HIV-1 NL4–3 (pNL4–3) were obtained from the National Institutes of Health (AIDS Research and Reference Reagent Program, Bethesda, Md.).
(§1) Compounds were tested in phenotypic susceptibility assays at Virologic, Inc., (See Petropoulos C. J., Parkin N. T., Limoli K. L., Lie Y. S., Wrin T., Huang W., Tian H., Smith D., Winslow G. A., Capon D J, Whitcomb J M. 2000, “A novel phenotypic drug susceptibility assay for human immunodeficiency virus type 1,” Antimicrob Agents Chemother 44(4):920–928) or using the assay described here. MT-2 cells were infected with either HIV-1 NL4–3 or HIV-1 NL4–3(184V/L90M) and incubated in the presence of serial 0.5 log dilutions of test compounds. Three days later, culture supernatants were collected and virus production, as determined by p24 ELISA, was assayed. Percent inhibition was calculated as p24 concentration in compound-treated samples as compared to infected, compound-free controls. Inhibition of viral replication is determined by measuring reduction in HIV p24 present in the culture supernatant, using a Beckman-Coulter p24 HIV-1 Ag EIA kit and following the supplied protocol. Absorbance is read on a MRX microplate reader (Dynex Technologies). The EC50 was calculated as the concentration of compound that effected a decrease in the p24 production by infected, compound-treated cells to 50% of that produced by infected, compound-free cells.

46I, 84V, 90M virus = experiment: Phenotypic susceptibility assay at Virologic, Inc.; assay type: cell-based, HIV-1; details: Human immunodeficiency virus 1
Method: as §1

Compound | melting point [°C] | EC50 (HIV-1) [nM] | Ki (HIV-1 protease (Q7S)) | EC50 [1] [mM] | IC50 (46I, 84V, 90M virus) [nM]
CCCN(C)C(=O)[C@H]1N(C(=O)[C@@H](O)[C@H](Cc2ccccc2)NC(=O)c2cccc(O)c2C)CSC1(C)C [Example A46, (R)-3-((2S,3S)-2-Hydroxy-3-{[1-(3-hydroxy-2-methyl-phenyl)-methanoyl]-amino}-4-phenyl-butanoyl)-5,5-dimethyl-thiazolidine-4-carboxylic acid methyl-propyl-amide] | 108 to 110 | 91 | 0.31 nM | 0.00079 | 
Cc1ccccc1CNC(=O)[C@H]1N(C(=O)[C@@H](O)[C@H](Cc2ccccc2)NC(=O)N2CC[C@H](O)C2)CSC1(C)C (stereo in doubt) [Example B8, 3-(2-hydroxy-3-{[1-(3-hydroxy-pyrrolidin-yl)-methanoyl]-amino}-4-phenyl-butanoyl)-5,5-dimethyl-thiazolidine-4-carboxylic acid-2-methyl-benzylamide] |  |  | 0.31 nM and 1.5 nM |  | 405
Cc1c(O)cccc1C(=O)N[C@@H](Cc1ccccc1)[C@H](O)C(=O)N1CSC(C)(C)[C@H]1C(=O)NCC#N [Example A30, (R)-3-((2S,3S)-2-Hydroxy-3-{[1-(3-hydroxy-2-methyl-phenyl)-methanoyl]-amino}-4-phenyl-butanoyl)-5,5-dimethyl-thiazolidine-4-carboxylic acid cyanomethylamide] |  | 507 | 1.1 nM |  | 829
Cc1c(O)cccc1C(=O)N[C@@H](Cc1ccccc1)[C@H](O)C(=O)N1CSC(C)(C)[C@H]1C(=O)N[C@@H](C)c1ccccc1 [Example A20, (R)-3-((2S,3S)-2-Hydroxy-3-{[1-(3-hydroxy-2-methyl-phenyl)-methanoyl]-amino}-4-phenyl-butanoyl)-5,5-dimethyl-thiazolidine-4-carboxylic acid ((S)-1-phenyl-ethyl)-amide] | 114 to 115 | 37 | 0.13 nM |  | 147
CCOc1cccc(CNC(=O)[C@H]2N(C(=O)[C@@H](O)[C@H](Cc3ccccc3)NC(=O)c3cccc(O)c3C)CSC2(C)C)c1 [Example A26, (R)-3-((2S,3S)-2-Hydroxy-3-{[1-(3-hydroxy-2-methyl-phenyl)-methanoyl]-amino}-4-phenyl-butanoyl)-5,5-dimethyl-thiazolidine-4-carboxylic acid 3-ethoxy-benzylamide] | 105 to 107 | 119 | 0.38 nM |  | 321
C#CCNC(=O)[C@H]1N(C(=O)[C@@H](O)[C@H](Cc2ccccc2)NC(=O)c2cccc(O)c2C)CSC1(C)C [Example A17, 3-(2-Hydroxy-3-{[1-(3-hydroxy-2-methyl-phenyl)-methanoyl]-amino}-4-phenyl-butanoyl)-5,5-dimethyl-thiazolidine-4-carboxylic acid prop-2-ynylamide] |  | 45 | < 0.1 nM |  | 102
Cc1ccccc1CNC(=O)C1N(C(=O)C(O)C(Cc2ccccc2)NC(=O)c2c(C)c(=O)on2C)CSC1(C)C (centres unmarked) [Example B19, 2,4-Dimethyl-5-oxo-2,5-dihydro-isoxazole-3-carboxylic acid {1-benzyl-3-[5,5-dimethyl-4-(2-methyl-benzylcarbamoyl)-thiazolidin-3-yl]-2-hydroxy-3-oxo-propyl}-amide] |  | 124 | < 0.1 nM | 0.00137 | 
C=CCNC(=O)[C@H]1N(C(=O)[C@@H](O)[C@H](Cc2ccccc2)NC(=O)c2cccc(O)c2C)CSC1(C)C [Example A14, (R)-3-((2S,3S)-2-Hydroxy-3-{[1-(3-hydroxy-2-methyl-phenyl)-methanoyl]-amino}-4-phenyl-butanoyl)-5,5-dimethyl-thiazolidine-4-carboxylic acid allylamide] |  | 52 | 0.44 nM |  | 71
Cc1ccccc1CNC(=O)[C@H]1N(C(=O)[C@@H](O)[C@H](Cc2ccccc2)NC(=O)c2cccc(O)c2C)COC1(C)C [Example C6, (S)-3-((2S,3S)-2-Hydroxy-3-{[1-(3-hydroxy-2-methyl-phenyl)-methanoyl]-amino}-4-phenyl-butanoyl)-5,5-dimethyl-oxazolidine-4-carboxylic acid 2-methyl-benzylamide] |  | 164 | < 0.1 nM | 0.00147 | 
Cc1nc(C)c(C(=O)N[C@@H](Cc2ccccc2)[C@H](O)C(=O)N2CSC(C)(C)[C@H]2C(=O)NCc2ccccc2C)s1 [Example B11, 2,4-Dimethyl-thiazole-5-carboxylic acid {1-benzyl-3-[5,5-dimethyl-4-(2-methyl-benzylcarbamoyl)-thiazolidin-3-yl]-2-hydroxy-3-oxo-propyl}-amide] |  | 1180 | 1.2 nM |  | 1720
Cc1ccccc1CNC(=O)[C@H]1N(C(=O)[C@@H](O)[C@H](Cc2ccccc2)NC(=O)c2ccccc2C)CSC1(C)C [Example B16, 3-[2-Hydroxy-3-(2-methyl-benzoylamino)-4-phenyl-butyryl]-5,5-dimethyl-thiazolidine-4-carboxylic acid 2-methyl-benzylamide] |  | 298 | < 0.1 nM | 0.00175 | 
COCCCC(=O)[C@H]1N(C(=O)[C@@H](O)[C@H](Cc2ccccc2)NC(=O)c2cccc(O)c2C)CSC1(C)C [Example D3, N-{1-Benzyl-2-hydroxy-3-[4-(4-methoxy-butanoyl)-5,5-dimethyl-thiazolidin-3-yl]-3-oxo-propyl}-3-hydroxy-2-methyl-benzamide] |  | 162 | 0.5 nM | 0.00195 | 
